# Laboratory results from PMC9693575, “Isopropyl Amino Acid Esters Ionic Liquids as Vehicles for Non-Steroidal Anti-Inflammatory Drugs in Potential Topical Drug Delivery Systems with Antimicrobial Activity” (International Journal of Molecular Sciences, 2022).
# Read-outs that look alike come from different tables or passages of the source.
# What was measured:
# [1] = test system: Micrococcus Luteus; experiment: Disc diffusion antimicrobial susceptibility test, Micrococcus luteus; format: cell-based; set-up: key to Inhibition diameter: -: no growth of the organism
# [2] = test system: Escherichia coli; experiment: Disc diffusion antimicrobial susceptibility test, Escherichia coli; format: cell-based; set-up: key to Inhibition diameter: -: no growth of the organism
# Method: (§1) The plates were incubated for 24 h at 37 °C.
# [3] = pKa / pKB by potentiometric acid-base titration and formation constant log(KS); details: calculated from pKA of acid and pKB of base
# Method: Determination of formation constant pKs
# Zabrze, Poland). For the measurement of pKA acids, 0.1 M NaOH was used. In order to
# ester hydrochloride, HCl aqueous solution, was added in an amount that allowed reach-
# After that, an acid-base titration was made out by adding dropwise 5 mM
# [4] = cited from earlier work; for TDTGmax, maximum decomposition temperature: DTG
# [5] = test system: Staphylococcus epidermidis; experiment: Disc diffusion antimicrobial susceptibility test, Staphylococcus epidermidis; format: cell-based; set-up: key to Inhibition diameter: -: no growth of the organism
# Method: as §1
# [6] = cited from earlier work
# [7] = Solubility in organic solvents (modified Vogel's method); details: 25 °C
# [8] = Thermogravimetric analysis (thermal stability); details: air atmosphere, 10 °C min−1
# Method in brief: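 Samples of 5–8 mg heated in Al2O3 crucibles under air (25 cm3 min−1) with nitrogen flow (10 cm3 min−1). Start of thermal degradation taken as the onset of the TG curve in the first decomposition phase.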
# [9] = n-octanol-water partition coefficient (logP), shake flask method; format: physicochemical; details: n-octanol-water, shake flask; read-out: LogP
# [10] = Solubility in water and phosphate buffers; details: for Solubility in Water, as active substance: deionized water, 25 °C; for Solubility in Water, as active substance / Solubility in Phosphate Buffer pH = 5.4, as active substance / Solubility in Phosphate Buffer pH = 7.4, as active substance: AS = unmodified acid; for Solubility in Phosphate Buffer pH = 5.4, as active substance: pH 5.4, 25 °C; for Solubility in Phosphate Buffer pH = 7.4, as active substance: pH 7.4, 25 °C
# Text: This study aims to compare the influence of amino acid structure on the physicochemical properties of NSAID salts with the isopropyl ester of amino acids.
# [11] = 25 °C; cited from earlier work
# [12] = solution transferred to disc 25 mg cm^−3
# [13] = solution transferred to disc 50 mg cm^−3
# [14] = solution transferred to disc 100 mg cm^−3
# [15] = solution transferred to disc 200 mg cm^−3
# [16] = solution transferred to disc 400 mg cm^−3
# [17] = solution transferred to disc 600 mg cm^−3
# [18] = solution transferred to disc 800 mg cm^−3
# [19] = solution transferred to disc 1000 mg cm^−3
# [20] = Micrococcus luteus, 24 h, solution transferred to disc 600 mg cm^−3, read-out: Inhibition diameter
# [21] = Micrococcus luteus, 24 h, solution transferred to disc 800 mg cm^−3, read-out: Inhibition diameter
# [22] = Escherichia coli, 24 h, solution transferred to disc 400 mg cm^−3, read-out: Inhibition diameter
# [23] = Escherichia coli, 24 h, solution transferred to disc 600 mg cm^−3, read-out: Inhibition diameter
compound,measurement,setting,value
CC(C)Cc1ccc(C(C)C(=O)O)cc1.CC(C)OC(=O)C(N)C(C)C (mixture of isomers) [[L-ValOiPr][IBU]],Inhibition diameter,[1]; [12],8.4 ± 0.3 mm
same,Inhibition diameter,[1]; [13],9.1 ± 0.2 mm
same,Inhibition diameter,[1]; [14],9.6 ± 0.1 mm
same,Inhibition diameter,[1]; [15],10.5 ± 0.2 mm
same,Inhibition diameter,[1]; [16],11.2 ± 0.2 mm
same,Inhibition diameter,[1]; [17],11.7 ± 0.2 mm
same,Inhibition diameter,[1]; [18],12.6 ± 0.3 mm
same,Inhibition diameter,[1]; [19],13.2 ± 0.2 mm
same,Inhibition diameter,[2]; [12],-
same,Inhibition diameter,[2]; [13],-
same,Inhibition diameter,[2]; [14],-
same,Inhibition diameter,[2]; [15],6.2 ± 0.1 mm
same,Inhibition diameter,[2]; [16],6.3 ± 0.2 mm
same,Inhibition diameter,[2]; [17],6.8 ± 0.5 mm
same,Inhibition diameter,[2]; [19],7.1 ± 0.3 mm
same,Log(KS) formation constant,[3],5.56
same,"TDTGmax, maximum decomposition temperature",[4],215.5 [50] °C
same,Inhibition diameter,[5]; [12],7.3 ± 0.2 mm
same,Inhibition diameter,[5]; [13],10.4 ± 0.1 mm
same,Inhibition diameter,[5]; [14],12.8 ± 0.2 mm
same,Inhibition diameter,[5]; [15],13.2 ± 0.2 mm
same,Inhibition diameter,[5]; [16],16.3 ± 0.3 mm
same,Inhibition diameter,[5]; [17],17.7 ± 0.3 mm
same,Inhibition diameter,[5]; [18],18.4 ± 0.2 mm
same,Inhibition diameter,[5]; [19],18.9 ± 0.3 mm
same,Solubility in Phosphate Buffer pH = 5.4,[6]; pH 5.4,2.351 ± 0.027 [45] g dm^−3
same,"Solubility in Phosphate Buffer pH = 5.4, as active substance",[6]; pH 5.4,1.326 ± 0.027 [45] gAS dm^−3
same,Solubility in Phosphate Buffer pH = 7.4,[6]; pH 7.4,4.998 ± 0.018 [45] g dm^−3
same,"Solubility in Phosphate Buffer pH = 7.4, as active substance",[6]; pH 7.4,2.821 ± 0.018 [45] gAS dm^−3
"CC(C)OC(=O)[C@@H](N)[C@@H](C)O.O=C(O)c1ccccc1O [[L-ThrOiPr][SA], L-threonine isopropyl ester salicylate]",Solubility in Chloroform (39.1),[7],○ (soluble >100 mg cm^−3)
same,Solubility in DMSO (45.1),[7],○ (soluble >100 mg cm^−3)
same,Solubility in Dichloromethane (40.7),[7],○ (soluble >100 mg cm^−3)
same,Solubility in Diethyl Ether (34.5),[7],● (insoluble <33 mg cm^−3)
same,Solubility in Ethanol (59.1),[7],○ (soluble >100 mg cm^−3)
same,Solubility in Ethyl Acetate (38.1),[7],○ (soluble >100 mg cm^−3)
same,Solubility in Hexane (31.0),[7],● (insoluble <33 mg cm^−3)
same,Solubility in Toluene (33.9),[7],● (insoluble <33 mg cm^−3)
same,concentrations at which the antimicrobial effect was observed,[1]; M. Luteus,in all tested concentration ranges
same,zone of inhibition at 25000 µg/mL,"[1]; Micrococcus luteus, 24 h, solution transferred to disc 25 mg cm^−3, read-out: Inhibition diameter",6.3 ± 0.1 mm
same,zone of inhibition at 50000 µg/mL,"[1]; Micrococcus luteus, 24 h, solution transferred to disc 50 mg cm^−3, read-out: Inhibition diameter",6.6 ± 0.2 mm
same,zone of inhibition at 100000 µg/mL,"[1]; Micrococcus luteus, 24 h, solution transferred to disc 100 mg cm^−3, read-out: Inhibition diameter",7 ± 0.1 mm
same,zone of inhibition at 200000 µg/mL,"[1]; Micrococcus luteus, 24 h, solution transferred to disc 200 mg cm^−3, read-out: Inhibition diameter",7.6 ± 0.2 mm
same,zone of inhibition at 400000 µg/mL,"[1]; Micrococcus luteus, 24 h, solution transferred to disc 400 mg cm^−3, read-out: Inhibition diameter",8.1 ± 0.1 mm
same,zone of inhibition at 600000 µg/mL,[1]; [20],8.7 ± 0.5 mm
same,zone of inhibition at 800000 µg/mL,[1]; [21],10.2 ± 0.7 mm
same,"TDTGmax, maximum decomposition temperature",[8]; DTG,191.4 °C
same,"TTGonset, the onset of the thermal degradation",[8]; TG,127.2 °C
same,zone of inhibition at 400000 µg/mL,[2]; [22],7.3 ± 0.2 mm
same,zone of inhibition at 600000 µg/mL,[2]; [23],9.3 ± 0.4 mm
same,Inhibition diameter,[2]; [12],-
same,Inhibition diameter,[2]; [13],-
same,Inhibition diameter,[2]; [14],-
same,Inhibition diameter,[2]; [15],-
same,logP,[9],1.55 ± 0.021
same,Log(KS) formation constant,[3],7.94
same,Inhibition diameter,[5]; [12],-
same,Inhibition diameter,[5]; [13],-
same,Inhibition diameter,[5]; [14],-
same,Inhibition diameter,[5]; [15],-
same,Inhibition diameter,[5]; [16],-
same,Inhibition diameter,[5]; [17],-
same,Inhibition diameter,[5]; [18],-
same,Inhibition diameter,[5]; [19],-
same,"Solubility in Water, as active substance",[10],17.925 ± 0.241 gAS dm^−3
same,"Solubility in Phosphate Buffer pH = 5.4, as active substance",[10],13.978 ± 0.018 gAS dm^−3
same,solubility thermodynamic,"[10]; pH 5.4, aqueous buffer",30.189 ± 0.018 mg/mL
same,"Solubility in Phosphate Buffer pH = 7.4, as active substance",[10],18.777 ± 0.125 gAS dm^−3
same,solubility thermodynamic,"[10]; pH 7.4, aqueous buffer",40.76 ± 0.125 mg/mL
same,solubility thermodynamic,[10]; water,38.71 ± 0.241 mg/mL
CC(C)OC(=O)C(N)C(C)C.O=C(O)c1ccccc1O [[L-ValOiPr][SA]],zone of inhibition at 600000 µg/mL,[1]; [20],8.6 ± 0.3 mm
same,zone of inhibition at 800000 µg/mL,[1]; [21],15.9 ± 1.2 mm
same,Inhibition diameter,[1]; [12],-
same,Inhibition diameter,[1]; [13],-
same,Inhibition diameter,[1]; [14],-
same,Inhibition diameter,[1]; [15],-
same,Inhibition diameter,[1]; [16],-
same,zone of inhibition at 50000 µg/mL,"[2]; Escherichia coli, 24 h, solution transferred to disc 50 mg cm^−3, read-out: Inhibition diameter",6.2 ± 0.1 mm
same,zone of inhibition at 100000 µg/mL,"[2]; Escherichia coli, 24 h, solution transferred to disc 100 mg cm^−3, read-out: Inhibition diameter",6.3 ± 0.2 mm
same,zone of inhibition at 200000 µg/mL,"[2]; Escherichia coli, 24 h, solution transferred to disc 200 mg cm^−3, read-out: Inhibition diameter",7.5 ± 0.1 mm
same,zone of inhibition at 400000 µg/mL,[2]; [22],8.9 ± 0.4 mm
same,zone of inhibition at 600000 µg/mL,[2]; [23],12.6 ± 0.3 mm
same,Inhibition diameter,[2]; [12],-
same,Solubility in Chloroform (39.1),[11],○ [49] (soluble >100 mg cm^−3)
same,Solubility in DMSO (45.1),[11],○ [49] (soluble >100 mg cm^−3)
same,Solubility in Dichloromethane (40.7),[11],○ [49] (soluble >100 mg cm^−3)
same,Solubility in Diethyl Ether (34.5),[11],◐ [49] (partially soluble 33–100 mg cm^−3)
same,Solubility in Ethanol (59.1),[11],○ [49] (soluble >100 mg cm^−3)
same,Solubility in Ethyl Acetate (38.1),[11],◐ [49] (partially soluble 33–100 mg cm^−3)
same,Solubility in Hexane (31.0),[11],● [49] (insoluble <33 mg cm^−3)
same,Solubility in Toluene (33.9),[11],○ [49] (soluble >100 mg cm^−3)
same,logP,[9],1.61 ± 0.057
same,Log(KS) formation constant,[3],7.03
same,"TDTGmax, maximum decomposition temperature",[4],197.6 [49] °C
same,"TTGonset, the onset of the thermal degradation",[4]; TG,124.6 [49] °C
same,zone of inhibition at 600000 µg/mL,"[5]; Staphylococcus epidermidis, 24 h, solution transferred to disc 600 mg cm^−3, read-out: Inhibition diameter",6.7 ± 0.3 mm
same,zone of inhibition at 800000 µg/mL,"[5]; Staphylococcus epidermidis, 24 h, solution transferred to disc 800 mg cm^−3, read-out: Inhibition diameter",8.4 ± 0.3 mm
same,Inhibition diameter,[5]; [12],-
same,Inhibition diameter,[5]; [13],-
same,Inhibition diameter,[5]; [14],-
same,Inhibition diameter,[5]; [15],-
same,Inhibition diameter,[5]; [16],-
same,"Solubility in Water, as active substance",[10],7.761 ± 2.044 gAS dm^−3
same,"Solubility in Phosphate Buffer pH = 5.4, as active substance",[10],5.259 ± 0.014 gAS dm^−3
same,solubility thermodynamic,"[10]; pH 5.4, aqueous buffer",11.32 ± 0.014 mg/mL
same,"Solubility in Phosphate Buffer pH = 7.4, as active substance",[10],8.702 ± 0.027 gAS dm^−3
same,solubility thermodynamic,"[10]; pH 7.4, aqueous buffer",18.73 ± 0.027 mg/mL
same,solubility thermodynamic,[10]; water,16.7 ± 2.04 mg/mL
